Experimental findings from patent publication US9603354B2, “Protective solutions for organs” (DR. FRANZ KOEHLER CHEMIE GMBH, priority 2002, dated 2017) are described below.

One series concerns hepatocytes. Description: Cell damage of hepatocytes by hydrogenperoxide (FIG. 5). Type of series: cell-based. The note with it: 1 mM/l in N4 solution + 20 mM/l H2O2. On the procedure: 1: N4+20 mM/l H2O2 • graph no. 2: N4+20 mM/l H2O2+1 mM/l 4-chloro-N-methyl-benzohydroxamic acid • graph no. 3: N4+20 mM/l H2O2+1 mM/l 2-hydroxy-3-methyl-isocarbosteryl • graph no. 4: N4+20 mM/l H2O2+1 mM/l 3,4,5-trimethoxy-N-methyl-benzohydroxamic acid • graph no. 5: N4+20 mM/l H2O2+1 mM/l 3,4-dimethoxy-N-methyl-hydroxamic acid, N4 meaning the solution according to example II given hereinafter, but without Trolox and without hydroxamic acid derivative.

Series [1] deals with iron-dependent hypothermic injury, cold-induced apoptosis. Description: Inhibition of iron-dependent hypothermic injury / cold-induced apoptosis by iron-chelating agents. The class given is cell-based. The source says:
Iron-chelating agents may serve for the inhibition of the iron-dependent hypothermic injury, or of the cold-induced apoptosis.

Series [2] concerns rat hepatocytes. The experiment in a line: Hypothermic injury of cultivated rat hepatocytes in UW solution, LDH release (FIG. 2). The conditions noted are these: 1 mM; 24 hrs at 4° C. in UW solution, aerobic; reheated 3 hrs at 37° C. in cell culture medium. The class given is cell-based. The method, then:
Cultivated rat hepatocytes were incubated for 24 hrs at 4° C. in a University of Wisconsin solution (UW) under aerobic conditions in the presence of, and in the absence of 1 mM of 3,4-dimethoxy-N-methyl-benzohydroxamic acid, and subsequently reheated for 3 hrs in a cell culture medium (37° C.). The secretion of cytosolic lactate […] (LDH) served as the parameter of the cell damage.
(LDH leaks from cells whose membrane has failed.)

Series [3] is described as follows: Neutralization curve / buffer capacity (FIG. 3). The class given is physicochemical. The note with it: for usable buffer capacity in the range of the physiological pH value: based on the ratio of spent base to substrate. From the text: The usable buffer capacity in the range of the physiological pH value; with N-acetylhistidine 60%, and with histidine 30% based on the ratio of spent base to substrate.

The test system of series [4] is rat hepatocytes. Description: Toxicity of histidine under warm conditions in cultivated rat hepatocytes (FIG. 4). The class given is cell-based. The conditions noted are these: 198 mM; 5 hrs at 37° C., aerobic, Krebs-Henseleit buffer, pH 7.2. On the procedure:
Cultivated rat hepatocytes were incubated for 5 hrs at 37° C. under aerobic conditions in the presence of, and in the absence of 198 mM of L-histidine, or 198 mM of N-acetylhistidine. The base solution was Krebs-Henseleit buffer (KH), a physiological saline solution often used in cell cultures; the NaCl concentration of the histidine (derivative) containing solution was decreased by 99 mM and the histidine (derivative) solution was adjusted by the addition of HCl or NAOH to pH 7.2.

The test system of series [5] is rat liver endothelial cells. The experiment in a line: Hypothermic injury of cultivated rat liver endothelial cells, LDH release (FIG. 1). The class given is cell-based. The conditions noted are these: 1 mM; 72 hrs at 4° C. in UW solution, aerobic; rewarmed 3 hrs at 37° C. in cell culture medium. The method, then:
Cultivated rat liver endothelial cells were incubated for 72 hrs at 4° C. in University of Wisconsin solution (UW) under aerobic conditions in the presence of, and in the absence of 1 mM of salicyl-N-methylhydroxamic acid, and subsequently rewarmed for 3 hrs in a cell culture medium (37° C.). The release of cytosolic lactate dehydrogenase (LDH) served as the parameter of the cell damage.

`Cc1cc2ccccc2c(=O)n1O` [2-hydroxy-3-methyl-isocarbosteryl, 2-hydroxy-3-methyl-isocarbostyril]: the “protection from cell damage by hydrogenperoxide” value (from here on “protection from cell damage”) with hepatocytes was “protection”.

For `COc1cc(C(=O)N(C)O)cc(OC)c1OC` [3,4,5-trimethoxy-N-methyl-benzohydroxamic acid], in the series on hepatocytes, the “protection from cell damage” value is “protection”.

For `O=c1c2ccccc2nnn1O` [3,4-dihydro-3-hydroxy-4oxo-1,2,3-benzotriazine], the “effectiveness in avoiding iron-dependent hypothermic injury” value (shortened to “effectiveness”) in series [1] is recorded as “ineffectiveness”.

Take `COc1ccc(C(=O)N(C)O)cc1OC` [3,4-dimethoxy-N-methyl-benzohydroxamic acid]: in the series with hepatocytes, the “protection from cell damage” value is “protection”. The “inhibition of hypothermic injury (cytosolic LDH)” value in the series with rat hepatocytes [2] was “inhibition of hypothermic injury”.

Consider `CN(O)C(=O)c1ccc(Cl)cc1` [4-chloro-N-methyl-benzohydroxamic acid], for which the “protection from cell damage” value with hepatocytes is given as “protection”.

With `O=C(O)CN(CCN(CC(=O)O)CC(=O)O)CC(=O)O` [EDTA], the “effectiveness” value in series [1] is “ineffective”.

`CC(=O)N[C@@H](Cc1c[nH]cn1)C(=O)O` [N-acetylhistidine]: the “usable buffer capacity in the range of the physiological pH value” in series [3] is 60%. In addition, the “buffer capacity improved by factor compared to histidine/histidine HCl” value in series [3] (factor versus histidine/histidine HCl) worked out at 2.

In the case of `O=C1CCC(=O)N1O` [N-hydroxysuccinimide], the “effectiveness” value in series [1] is “ineffectiveness”.

`N[C@@H](Cc1c[nH]cn1)C(=O)O` [histidine, L-histidine]: in series [3], the “usable buffer capacity in the range of the physiological pH value” was 30%. Also, the “toxicity under warm conditions” value in the series on rat hepatocytes [4] was “toxicity”. In addition, in series [1], the “effectiveness” value is “ineffective”.

Regarding `CN(O)C(=O)c1ccccc1O` [salicyl-N-methylhydroxamic acid], the “inhibition of hypothermic injury (release of cytosolic LDH)” value in series [5] is “inhibition of hypothermic injury”.
